Results: paper PMC9962735, “Synthesis and Cytotoxic Activity of the Derivatives of N-(Purin-6-yl)aminopolymethylene Carboxylic Acids and Related Compounds” (Molecules, 2023)

Tests used:
[1] = MTT cytotoxicity assay, WI-38 normal cells; type: cell-based; conditions: human, WI-38 lung fibroblasts (normal cells); for CC50 at 72 h: WI-38, 72 h incubation, MTT; for viability at 72 h: WI-38, 1 × 10^–4 M, mean ± SD (n = 3), read-out: Cell viability
[2] = MTT cytotoxicity assay, 4T1; type: cell-based, murine; conditions: mouse (4T1) and human (WI-38); CC50 of WI-38 divided by CC50 of 4T1; read-out: SCI (selective cytotoxicity index)
Excerpt: (§1) The cytotoxicity of the test compounds was studied using the MTT assay against a number of cell lines: CT-26 murine colon carcinoma, 4T1 murine mammary carcinoma, MDA-MB-231 human breast adenocarcinoma, COLO201 human colorectal adenocarcinoma, HepG2 human hepatocellular carcinoma, A549 human non-small-cell lung carcinoma, SK-BR-3 human breast adenocarcinoma, SNU-1 human gastric carcinoma, Jurkat human acute T-lymphoblastic leukemia, and WI-38 human lung fibroblasts (normal cells). Doxorubicin (Dox) was used as a reference drug. Cells were incubated with test compounds for 72 h.
(§2) Cells were seeded in flat-bottomed 96-well plates at 10,000 cells per well (for A549, SNU-1, WI-38, CT-26, MDA-MB-231, 4T1, and HepG2 cells) or 20,000 cells per well (for SK-BR-3, Jurkat, and COLO201 cells) and cultivated in complete culture mediums (for composition of each medium, see the Supplementary Materials, Table S1) in a CO2 incubator at 37 °C. At the first stage of this study, the test compounds dissolved in DMSO were added to the wells with cells at final concentrations from 1 × 10^–4 to 1 × 10^–10 mol/L (A549, SK-BR-3, SNU-1, Jurkat, and WI-38) or 1 × 10^–3 to 1 × 10^–8 mol/L (CT-26, MDA-MB-231, 4T1, COLO201, and HepG2); DMSO concentration in the wells was finally 1%. A complete cultural medium and DMSO were added to the control wells at the same concentration as in the experimental wells; 0.1% Triton X-100 solution (10 µL) was added to the corresponding wells as a non-specific positive control. After adding the test compounds, the cells were incubated for 72 h in an atmosphere containing 5% CO2. After that, the nutrient medium was removed from each well (in the case of SK-BR-3, Jurkat, and COLO201, plates were pre-centrifuged at 1500 rpm for 6 min). A solution of the commercial anticancer agent Doxorubicin (Dox, Sigma-Aldrich, St. Louis, MO, USA) in DMSO was used as a reference drug. Then, 150 µL of a complete medium with the MTT reagent (PanEco, Moscow, Russia) at a concentration of 0.5 mg/mL was added and incubated for 2 h. Formazan crystals were dissolved in DMSO (200 µL) and the absorbance in the wells was measured at 540 nm and a reference wavelength of 650 nm (Sunrise, Tecan, Groding, Austria). Experiments were performed in three parallel runs. Cell viability after incubation in the presence of test compounds was calculated in relation to cell viability in the control wells according to the Formula (1):Cell viability (%) = (Aexp/Ac) × 100,(1) where Aexp is the optical density of solutions in the wells containing test compounds; Ac is the optical density of solutions in control wells without test compounds. For detailed information on cell viability of various cell lines, see the Supplementary Materials, Figures S21–S26.
(§3) At the second stage of this study, in order to more accurately calculate the CC50 (the half maximal inhibitory concentration), the cytotoxic effect of test compounds was evaluated at concentrations close to CC50 found at the first stage. The study of the cytotoxic activity of each substance towards the cells of each line was carried out in triplicate; the mean value was used to calculate CC50. The CC50 values were determined by non-linear regression analysis using Graph-Pad Prism7.

[3] = system: 4T1 murine mammary carcinoma; experiment: MTT cytotoxicity assay, 4T1; type: cell-based; conditions: Mus musculus; for viability at 100 µM: 4T1, 1 × 10^–4 M, mean ± SD (n = 3), read-out: Cell viability; for CC50: 4T1, 72 h incubation, MTT, n = 3
Excerpt: as §1, §2, §3

[4] = MTT cytotoxicity assay, MDA-MB-231; type: cell-based, human; conditions: human; CC50 of WI-38 divided by CC50 of MDA-MB-231; read-out: SCI (selective cytotoxicity index)
Excerpt: as §1, §2, §3

[5] = system: MDA-MB-231 human breast adenocarcinoma; experiment: MTT cytotoxicity assay, MDA-MB-231; type: cell-based; conditions: Homo sapiens; for viability at 100 µM: MDA-MB-231, 1 × 10^–4 M, mean ± SD (n = 3), read-out: Cell viability; for CC50: MDA-MB-231, 72 h incubation, MTT, n = 3
Excerpt: as §1, §2, §3

[6] = MTT cytotoxicity assay, COLO201; type: cell-based, human; conditions: human; CC50 of WI-38 divided by CC50 of COLO201; read-out: SCI (selective cytotoxicity index)
Excerpt: as §1, §2, §3

[7] = system: COLO201 human colorectal adenocarcinoma; experiment: MTT cytotoxicity assay, COLO201; type: cell-based; conditions: Homo sapiens, COLO 201; for viability at 100 µM: COLO201, 1 × 10^–4 M, mean ± SD (n = 3), read-out: Cell viability; for CC50: COLO201, 72 h incubation, MTT, n = 3
Excerpt: as §1, §2, §3

[8] = MTT cytotoxicity assay, HepG2; type: cell-based, human; conditions: human; CC50 of WI-38 divided by CC50 of HepG2; read-out: SCI (selective cytotoxicity index)
Excerpt: as §1, §2, §3

[9] = system: HepG2 human hepatocellular carcinoma; experiment: MTT cytotoxicity assay, HepG2; type: cell-based; conditions: Homo sapiens; for viability at 100 µM: HepG2, 1 × 10^–4 M, mean ± SD (n = 3), read-out: Cell viability; for CC50: HepG2, 72 h incubation, MTT, n = 3
Excerpt: as §1, §2, §3

[10] = MTT cytotoxicity assay, A549; type: cell-based, human; conditions: human, read-out: SCI (selective cytotoxicity index)
[11] = system: A549 human non-small-cell lung carcinoma; experiment: MTT cytotoxicity assay, A549; type: cell-based; conditions: Homo sapiens; for CC50: A549, 72 h, A549, 72 h incubation, MTT; for viability at 100 µM: A549, 1 × 10^–4 M, mean ± SD (n = 3)
[12] = MTT cytotoxicity assay, SK-BR-3; type: cell-based, human; conditions: human, read-out: SCI (selective cytotoxicity index)
[13] = system: SK-BR-3 human breast adenocarcinoma; experiment: MTT cytotoxicity assay, SK-BR-3; type: cell-based; conditions: Homo sapiens; for CC50: SK-BR-3, 72 h, SK-BR-3, 72 h incubation, MTT; for viability at 100 µM: SK-BR-3, 1 × 10^–4 M, mean ± SD (n = 3), read-out: Cell viability
[14] = MTT cytotoxicity assay, SNU-1; type: cell-based, human; conditions: human, read-out: SCI (selective cytotoxicity index)
[15] = system: SNU-1 human gastric carcinoma; experiment: MTT cytotoxicity assay, SNU-1; type: cell-based; conditions: Homo sapiens; for CC50: SNU1, 72 h, SNU-1, 72 h incubation, MTT; for viability at 100 µM: SNU1, SNU-1, 1 × 10^–4 M, mean ± SD (n = 3), read-out: Cell viability
[16] = CC50 of WI-38 divided by CC50 of A549 (Table 1)
[17] = CC50 of WI-38 divided by CC50 of SK-BR-3 (Table 1)
[18] = CC50 of WI-38 divided by CC50 of SNU-1 (Table 1)

SMILES	CC50 at 72 h ([1]; n = 3)	viability at 72 h [1]	selectivity ratio at 72 h [2]	viability at 100 µM [3]	CC50 [3]	selectivity ratio at 72 h [4]	viability at 100 µM [5]	CC50 [5]	selectivity ratio at 72 h [6]	viability at 100 µM [7]	CC50 [7]	selectivity ratio at 72 h [8]	viability at 100 µM [9]	CC50 [9]	selectivity ratio at 72 h [10, 16]	CC50 ([11]; n = 3 (Table 1))	viability at 100 µM [11]	selectivity ratio at 72 h [12, 17]	CC50 ([13]; n = 3 (Table 1))	viability at 100 µM [13]	further results
CC1COc2c(ccc(F)c2F)N1C(=O)CCCCCCCNc1ncnc2[nH]cnc12 (centres unmarked) [Compound 1c]	50 µM	21 ± 3%	2.2	2 ± 2%	23 µM	1.2	5 ± 5%	44 µM	73	2 ± 1%	0.68 µM	5.9	2 ± 1%	8.5 µM	1.2	43 µM	7 ± 1%	0.67	75 µM	8%	selectivity ratio at 72 h [14, 18]: 7.1; CC50 ([15]; n = 3 (Table 1)): 7 µM; viability at 100 µM [15]: 6 ± 2%
CC1COc2c(ccc(F)c2F)N1C(=O)CCCCCCCCCCNc1ncnc2[nH]cnc12 (centres unmarked) [Compound 1d]	21 µM	21 ± 7%	0.91	2 ± 1%	23 µM	0.48	4 ± 2%	44 µM	31	1 ± 1%	0.68 µM	2.5	2 ± 1%	8.5 µM	0.49	43 µM	6 ± 1%	0.28	75 µM	8 ± 2%	CC50 at 72 h ([1]; n = 3 (Table 3)): 21 µM; selectivity ratio at 72 h ([10]; CC50 of WI-38 divided by CC50 of A549 (Table 3)): 1; CC50 ([11]; n = 3 (Table 3)): 21 µM; selectivity ratio at 72 h ([12]; CC50 of WI-38 divided by CC50 of SK-BR-3 (Table 3)): 0.75; CC50 ([13]; n = 3 (Table 3)): 28 µM; selectivity ratio at 72 h [14, 18]: 3; selectivity ratio at 72 h ([14]; CC50 of WI-38 divided by CC50 of SNU-1 (Table 3)): 10; CC50 ([15]; n = 3 (Table 1)): 7 µM; CC50 ([15]; n = 3 (Table 3)): 2 µM; viability at 100 µM [15]: 5 ± 1%
